Tests used:
[1] = system: laser-induced choroidal neovascularization (CNV); assay: Laser-induced choroidal neovascularization (CNV) mice; assay type: in vivo, female C57BL/6 mice; details: 5 μl, 4 times/day
Description: Choroidal neovascularization (CNV) was induced in 7-week-old female C57BL/6 mice by laser photocoagulation (200 mW, 80 ms duration, 4 spots). Mice were divided into 5 groups. (1) Naive Group (2) Vehicle Group (Laser and Vehicle Injection) (3) Aflibercept 1 μg group (laser and intravitreal injection of 1 μg aflibercept) (4) Aflibercept 20 μg group (laser and intravitreal injection of 20 μg aflibercept) (5) Example 1 compound group (laser and 5 μl of Example 1 compound (1 mg/ml), eye drops). One day post laser injury, mice were intravitreally injected with 1 μl of aflibercept (1 mg/ml or 20 mg/ml). 5 μl of the compound of Example 1 (1 mg/ml) was instilled into the eye 4 times a day for 12 days starting from the day of laser injury. […] Visual function was evaluated by […]. Apoptotic cells are detected by TUNEL staining. VEGF and GFAP were detected by immunofluorescence staining.

BV2 cells = assay: Nox inhibitory effect in BV2 cells (LPS-induced ROS generation, lucigenin chemiluminescence); assay type: cell-based; details: BV2 cells pre-treated 30 minutes, 0-10000 nM, then LPS 200 ng/ml; FIG. 3
Description: BV2 cells were washed with Hank's balanced salt solution (HBSS) and incubated in HBSS at 37° C. for 30 minutes. Then, the cells were treated with the compound (compound of Example 1 or compound of Example 2) at various concentrations (0 nM, 1 nM, 10 nM, 100 nM, 1000 nM, and 10000 nM). After 30 minutes, 200 ng/ml of lipopolysaccharide (LPS) and 200 μM of lucigenin were added to the cells. Lucigenin chemiluminescence was detected at 10 second intervals for 15 minutes using a luminometer (GLOMA, Promega).
Specifically, BV2 cells were pre-treated with Compound (A) of Example 1 or Compound (B) of Example 2 for 30 minutes and generation of reactive oxygen species (ROS) was detected after treatment with LPS (200 ng/ml). Data are expressed as mean ±SD (N=3).

[2] = system: MPTP-induced Parkinson's disease; assay: MPTP-induced Parkinson's disease model mice; assay type: in vivo, C57BL/6 male mice
Description: In order to evaluate the effect of the compound of Example 1 against MPTP (1-methyl-4-phenyl-1,2,3,6-tetrahydropyridine hydrochloride; Sigma-Aldrich) induced Parkinson's disease, twenty-six C57BL/6 male mice (9 weeks old) were randomly divided into three groups. • (1) saline+vehicle • (2) MPTP+vehicle • (3) MPTP+compound of Example 1 (10 mg/kg) Mice were injected intraperitoneally with MPTP (15 mg/kg) 4 times at 2 hour intervals, whereas control mice were treated with the same volume of saline. The compound of Example 1 was dissolved in a vehicle containing 4% DMSO (dimethyl sulfoxide, Sigma-Aldrich) and 96% corn oil (Sigma-Aldrich). Mice received daily intraperitoneal injections of the compound of Example 1 at 10 mg/kg for 8 days from 1 day prior to MPTP injection. Dopaminergic neurons were detected using an anti-tyrosine hydroxylase antibody (1:2000-4000, abcaom) and microglia were measured using an anti-Ibal antibody (1:1000, Wako). Biotinylated goat anti-rabbit antibody (VECTOR, BA-1000) was used as secondary antibody, and ABC solution (VECTOR, BA-1000) was employed. The immunoreactive regions were then incubated with 3-3′ diaminobenzidine (DAB, Dako) to change the color to brown. Seven days post MPTP injection (one day post the final injection of the compound of Example 1), mice were sacrificed and brains thereof were recovered. The brain was sectioned coronally (thickness of 30 μm) using a cryostat (CM1850, Leica), and stored in anti-freeze solution (30% sucrose, 1% polyvinylpyrrolidone and 30% ethylene glycol in 1X PBS) at -20° C. Six coronal sections from substantia nigra (bregma −2.80 mm to −3.80 mm) and three coronal sections (bregma +0.98 mm to +0.50 mm) were collected every 150 μm, stained, and analyzed using ImagePro plus 7.0 software. Mice were subjected to the rotarod test 3 times (1 day before MPTP injection, Day 3 and Day 6 post MPTP injection) based on 3 trials/day.

CN1C(=S)N(C2CCCCC2)C(=O)/C1=C\c1ccc(N(C)CCO)cc1 [Example 1, (E)-3-cyclohexyl-5-(4-((2-hydroxyethyl)(methyl)amino)benzylidene)-1-methyl-2-thioxoimidazolidin-4-one]
choroidal neovascularization vascular leakage (fundus fluorescein angiography) ([1]; eye drop 1 mg/ml, for 12 days, efficacy similar to intravitreal 20 μg aflibercept, FIG. 15): significantly reduced choroidal neovascularization vascular leakage
postsynaptic function (b-wave amplitude) ([1]; eye drops 1 mg/ml, Day 13 after injury, similar to intravitreal 20 μg aflibercept, FIG. 16): improved the b-wave amplitude
activation of Muller cells and astrocytes (GFAP immunostaining) ([1]; eye drops 1 mg/ml, Day 13 post CNV, similar to intravitreal 20 μg aflibercept, FIG. 20): significantly improved activation of Muller cells and astrocytes
vascular endothelial growth factor (VEGF) expression ([1]; eye drops 1 mg/ml, anti-VEGF immunofluorescence, similar to intravitreal 20 μg aflibercept, FIG. 19): dramatically reduced VEGF expression
cell death (TUNEL-positive cells) ([1]; eye drops 1 mg/ml, similar to intravitreal 20 μg aflibercept, FIG. 18): dramatically reduced TUNEL-positive cells
CNV lesion size (hematoxylin and eosin staining) ([1]; eye drops 1 mg/ml, versus vehicle group, FIG. 17): significantly smaller
generation of reactive oxygen species (ROS) (BV2 cells): significant inhibition of ROS generation
dopaminergic neuron protection (Th+ cells in substantia nigra, Th+ fiber density in striatum) ([2]; 10 mg/kg intraperitoneal daily for 8 days, FIG. 4): protected dopaminergic neurons
pathology of microglia (Iba1+ counts in substantia nigra and striatum) ([2]; 10 mg/kg intraperitoneal daily for 8 days, FIG. 5): improved the pathology of microglia
motor function (rotarod test, retention time on the rod) ([2]; 10 mg/kg intraperitoneal daily, Day 3 and Day 6 post MPTP injection, FIG. 6): improved motor function
